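The compound was tested at five concentrations on cells cultured in 96-well plates, with a 48-hour exposure period. TGI denotes the concentration required for complete inhibition of growth.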
Key:
Test in all cases: DTP human tumour cell line panel, 48 h
[1] = test system: RXF 393 renal
[2] = test system: NCI-H522 lung
[3] = test system: PC-3 prostate
[4] = test system: OVCAR-8 ovarian
[5] = test system: RPMI-8226 leukemia
[6] = test system: DU-145 prostate
[7] = test system: HOP-62 NSCLC
[8] = test system: SNB-75 CNS
[9] = test system: NCI-H226 lung
[10] = test system: K-562 leukemia
[11] = test system: HCT-116 colon
[12] = test system: NCI-H460 lung
[13] = test system: ACHN renal
[14] = test system: SF-295 CNS
[15] = test system: EKVX NSCLC
[16] = test system: MOLT-4 leukemia
[17] = test system: 786-0 renal
[18] = test system: SK-OV-3 ovarian
[19] = test system: MDA-MB-231 breast
[20] = test system: SW-620 colon
[21] = test system: SK-MEL-5 melanoma
[22] = test system: COLO 205 colon
[23] = test system: MDA-N
[24] = test system: UO-31 renal
[25] = test system: UACC-257 melanoma
[26] = test system: A549 NSCLC
[27] = test system: MDA-MB-435
[28] = test system: M14 melanoma
[29] = test system: HT29 colon
[30] = test system: HOP-92 NSCLC
[31] = test system: HS 578T breast
[32] = test system: TK-10 renal
[33] = test system: SF-539 CNS
[34] = test system: SF-268 CNS
[35] = test system: SN12C renal
[36] = test system: U251 CNS
[37] = test system: SNB-19 CNS
[38] = test system: HCT-15 colon
[39] = test system: T-47D breast
[40] = test system: BT-549 breast
[41] = test system: SK-MEL-2 melanoma
[42] = test system: OVCAR-3 ovarian
[43] = test system: NCI/ADR-RES ovarian
[44] = test system: SR leukemia
[45] = test system: CCRF-CEM leukemia
[46] = test system: LOX IMVI melanoma
[47] = test system: KM12 colon
[48] = test system: IGROV1 ovarian
[49] = test system: SK-MEL-28 melanoma
[50] = test system: MALME-3M melanoma
[51] = test system: CAKI-1 renal
[52] = test system: UACC-62 melanoma
[53] = test system: MCF7 breast
[54] = test system: HCC-2998 colon
[55] = test system: HL-60(TB) leukemia
[56] = test system: NCI-H23 lung
[57] = test system: OVCAR-4 ovarian
[58] = test system: A498 renal
[59] = test system: OVCAR-5 ovarian
[60] = test system: SNB-78 CNS
[61] = test system: LXFL 529 NSCLC
[62] = test system: KM20L2 colon
[63] = test system: XF 498 CNS
[64] = test system: M19-MEL melanoma
[65] = test system: DMS 273 small cell lung
[66] = test system: DMS 114 small cell lung
[67] = test system: HOP-18 NSCLC
[68] = test system: DLD-1 colon

With Cc1ccc2c(c1)C(=O)C(C1OC(=O)c3ccccc31)C2 (stereo unspecified) the TGI [1] was over 100 µM, the TGI [2] was over 100 µM and the TGI [3] was over 100 µM. It also gave a TGI [4] of over 100 µM, a TGI [5] of over 100 µM and a TGI [6] of over 100 µM. It also gave a TGI [7] of over 100 µM, a TGI [8] of over 100 µM and a TGI [9] of over 100 µM. For the same compound, the TGI [10] was over 100 µM, the TGI [11] was over 100 µM and the TGI [12] was over 100 µM. For the same compound, the TGI [13] was over 100 µM, the TGI [14] was over 100 µM and the TGI [15] was over 100 µM. For the same compound, the TGI [16] was over 100 µM, the TGI [17] was over 100 µM and the TGI [18] was over 100 µM. The TGI [19] was over 100 µM, the TGI [20] was over 100 µM and the TGI [21] was over 100 µM. It also gave a TGI [22] of over 100 µM, a TGI [23] of over 100 µM and a TGI [24] of over 100 µM. For the same compound, the TGI [25] was over 100 µM, the TGI [26] was over 100 µM and the TGI [27] was over 100 µM. For the same compound, the TGI [28] was over 100 µM, the TGI [29] was over 100 µM and the TGI [30] was over 100 µM. The TGI [31] was over 100 µM, the TGI [32] was over 100 µM and the TGI [33] was over 100 µM. For the same compound, the TGI [34] was over 100 µM, the TGI [35] was over 100 µM and the TGI [36] was over 100 µM. For the same compound, the TGI [37] was over 100 µM, the TGI [38] was over 100 µM and the TGI [39] was over 100 µM. It also gave a TGI [40] of over 100 µM, a TGI [41] of over 100 µM and a TGI [42] of over 100 µM. It also gave a TGI [43] of over 100 µM, a TGI [44] of over 100 µM and a TGI [45] of over 100 µM. The TGI [46] was over 100 µM, the TGI [47] was over 100 µM and the TGI [48] was over 100 µM. The TGI [49] was over 100 µM, the TGI [50] was over 100 µM and the TGI [51] was over 100 µM. It also gave a TGI [52] of over 100 µM, a TGI [53] of over 100 µM and a TGI [54] of over 100 µM. It also gave a TGI [55] of over 100 µM, a TGI [56] of over 100 µM and a TGI [57] of over 100 µM. It also gave a TGI [58] of over 100 µM and a TGI [59] of over 100 µM.
Work on CCOC(=O)N(c1ccccc1)N(CC)C(=O)/C(C)=N/Nc1ccc([N+](=O)[O-])cc1 yielded a TGI [1] of 26.2 µM, a TGI [2] of 29.3 µM and a TGI [4] of 32.6 µM. It also gave a TGI [5] of 58 µM, a TGI [60] of 58.9 µM and a TGI [7] of 30 µM. The TGI [8] was 35.2 µM, the TGI [9] was 37.5 µM and the TGI [10] was 38.1 µM. For the same compound, the TGI [11] was 27.1 µM, the TGI [13] was 40.9 µM and the TGI [14] was 32.3 µM. The TGI [15] was 39.8 µM, the TGI [16] was 52.6 µM and the TGI [61] was 34.6 µM. It also gave a TGI [17] of 33.4 µM, a TGI [62] of 31.3 µM and a TGI [18] of 37.1 µM. For the same compound, the TGI [20] was 36.7 µM, the TGI [63] was 33.4 µM and the TGI [22] was 33.5 µM. The TGI [24] was 29.5 µM, the TGI [64] was 31.2 µM and the TGI [25] was 29.3 µM. For the same compound, the TGI [26] was 33.9 µM, the TGI [28] was 31.7 µM and the TGI [29] was 31 µM. The TGI [30] was 30.3 µM, the TGI [33] was 30 µM and the TGI [34] was 34.1 µM. The TGI [35] was 31.4 µM, the TGI [36] was 28.2 µM and the TGI [37] was 34.9 µM. It also gave a TGI [38] of 30.3 µM, a TGI [41] of 30 µM and a TGI [42] of 31.1 µM. The TGI [65] was 30 µM, the TGI [44] was 69.3 µM and the TGI [45] was 42 µM. The TGI [66] was 43.5 µM, the TGI [47] was 29.2 µM and the TGI [48] was 33 µM. For the same compound, the TGI [49] was 31.1 µM, the TGI [50] was 33.5 µM and the TGI [67] was 36.9 µM. The TGI [52] was 26.8 µM, the TGI [54] was 32.5 µM and the TGI [55] was 35.8 µM. For the same compound, the TGI [68] was 30.7 µM, the TGI [56] was 36.1 µM and the TGI [57] was 42.2 µM. For the same compound, the TGI [58] was 28 µM.
Compound O=P(O)(O)C1(P(=O)(O)O)CC1 has a TGI [1] of over 100 µM, a TGI [2] of over 100 µM and a TGI [4] of over 100 µM. For the same compound, the TGI [5] was over 100 µM, the TGI [60] was over 100 µM and the TGI [7] was over 100 µM. The TGI [8] was over 100 µM, the TGI [9] was over 100 µM and the TGI [10] was over 100 µM. It also gave a TGI [11] of over 100 µM, a TGI [12] of over 100 µM and a TGI [13] of over 100 µM. For the same compound, the TGI [14] was over 100 µM, the TGI [15] was over 100 µM and the TGI [16] was over 100 µM. It also gave a TGI [61] of over 100 µM, a TGI [17] of over 100 µM and a TGI [62] of over 100 µM. For the same compound, the TGI [18] was over 100 µM, the TGI [20] was over 100 µM and the TGI [63] was over 100 µM. The TGI [21] was over 100 µM, the TGI [22] was over 100 µM and the TGI [24] was over 100 µM. For the same compound, the TGI [64] was over 100 µM, the TGI [25] was over 100 µM and the TGI [26] was over 100 µM. For the same compound, the TGI [28] was over 100 µM, the TGI [29] was over 100 µM and the TGI [32] was over 100 µM. It also gave a TGI [33] of over 100 µM, a TGI [34] of over 100 µM and a TGI [35] of over 100 µM. For the same compound, the TGI [36] was over 100 µM, the TGI [37] was over 100 µM and the TGI [38] was over 100 µM. For the same compound, the TGI [41] was over 100 µM, the TGI [42] was over 100 µM and the TGI [65] was over 100 µM. The TGI [45] was over 100 µM, the TGI [46] was over 100 µM and the TGI [66] was over 100 µM. It also gave a TGI [47] of over 100 µM, a TGI [48] of over 100 µM and a TGI [49] of over 100 µM. It also gave a TGI [50] of over 100 µM, a TGI [51] of over 100 µM and a TGI [52] of over 100 µM. It also gave a TGI [54] of over 100 µM, a TGI [56] of over 100 µM and a TGI [57] of over 100 µM. It also gave a TGI [58] of over 100 µM and a TGI [59] of over 100 µM.
Compound CC1(c2ccc(Cl)cc2)C2C(=O)NC(=O)C1C(=O)NC2=O (stereo unspecified) has a TGI [1] of over 100 µM, a TGI [2] of over 100 µM and a TGI [4] of over 100 µM. For the same compound, the TGI [5] was over 100 µM, the TGI [60] was over 100 µM and the TGI [7] was over 100 µM. The TGI [8] was over 100 µM, the TGI [10] was over 100 µM and the TGI [12] was over 100 µM. It also gave a TGI [13] of over 100 µM, a TGI [14] of over 100 µM and a TGI [15] of over 100 µM. The TGI [16] was over 100 µM, the TGI [61] was over 100 µM and the TGI [17] was over 100 µM. The TGI [62] was over 100 µM, the TGI [18] was over 100 µM and the TGI [20] was over 100 µM. It also gave a TGI [63] of over 100 µM, a TGI [21] of over 100 µM and a TGI [22] of over 100 µM. The TGI [24] was over 100 µM, the TGI [64] was over 100 µM and the TGI [25] was over 100 µM. The TGI [26] was over 100 µM, the TGI [28] was over 100 µM and the TGI [29] was over 100 µM. It also gave a TGI [30] of over 100 µM, a TGI [32] of over 100 µM and a TGI [33] of over 100 µM. It also gave a TGI [34] of over 100 µM, a TGI [35] of over 100 µM and a TGI [37] of over 100 µM. It also gave a TGI [38] of over 100 µM, a TGI [41] of over 100 µM and a TGI [42] of over 100 µM. The TGI [65] was over 100 µM, the TGI [45] was over 100 µM and the TGI [46] was over 100 µM. The TGI [47] was over 100 µM, the TGI [48] was over 100 µM and the TGI [49] was over 100 µM. It also gave a TGI [50] of over 100 µM, a TGI [51] of over 100 µM and a TGI [52] of over 100 µM. It also gave a TGI [54] of over 100 µM, a TGI [55] of over 100 µM and a TGI [68] of over 100 µM. For the same compound, the TGI [56] was over 100 µM, the TGI [57] was over 100 µM and the TGI [58] was over 100 µM. The TGI [59] was over 100 µM.
